Where two headings read alike, the source gives them in different places.
Experiments:
[1] = biological target: muscarinic acetylcholine receptors; test: inhibition of specific binding of ^3 H-Oxotremorine-M (^3 H-Oxo); set-up: species or system rat (male Wistar; conditions: ^3 H-Oxotremorine 1.0 nM, rat cortex, 30 min. at 25° C.
Outline: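 Rat cortex membranes (male Wistar) in 20 mM Hepes pH 7.4 incubated with 1.0 nM ^3H-Oxotremorine-M (final) and test compound for 30 min at 25 °C; arecoline defines non-specific binding. Bound radioactivity by filtration and scintillation counting; IC50 (nM) from a single concentration via Co/Cx mass-action formula, reflecting high- and medium-affinity sites.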

[2] = biological target: T1, muscarinic receptors (M1 -site, pirenzepine sensitive site) (Rattus norvegicus, UniProt P08482); test: inhibition of ^3 HPRZ (pirenzepine, [N-methyl-^3 H]) binding to rat cerebral cortex membranes; set-up: species or system rat (male Wistar
T1 construct: from tissue; host or cells: cerebral cortex membranes of male Wistar rats
T1 sequence (P08482 1-460): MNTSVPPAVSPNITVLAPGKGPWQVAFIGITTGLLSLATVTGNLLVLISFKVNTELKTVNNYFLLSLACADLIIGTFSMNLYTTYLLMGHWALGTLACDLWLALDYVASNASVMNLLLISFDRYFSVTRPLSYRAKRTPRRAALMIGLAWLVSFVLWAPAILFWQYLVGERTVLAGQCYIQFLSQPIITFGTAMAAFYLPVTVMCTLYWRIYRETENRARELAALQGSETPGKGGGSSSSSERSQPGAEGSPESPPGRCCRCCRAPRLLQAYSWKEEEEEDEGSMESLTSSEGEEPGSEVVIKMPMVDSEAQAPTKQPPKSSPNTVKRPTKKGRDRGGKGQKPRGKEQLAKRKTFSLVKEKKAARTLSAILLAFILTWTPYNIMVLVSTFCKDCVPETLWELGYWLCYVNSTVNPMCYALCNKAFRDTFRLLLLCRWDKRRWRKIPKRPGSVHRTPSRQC
Outline: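 Male Wistar rat cortex membranes in 20 mM Hepes pH 7.4 were incubated with 1.0 nM (final) [3H]pirenzepine for 60 min at 20° C; nonspecific binding was defined with 1 μg/mL atropine. Filtration and scintillation counting were used, and IC50 was calculated from a single concentration assuming mass-action kinetics.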

[3] = ^3 HPRZ 1.0 nM, rat cortex, 60 min. at 20° C., read-out: ^3 HPRZ IC50 (head from b208 on: Pir IC-50)

Row | IC50 [2, 3] [nM] | Structure (SMILES) | IC50 [1] [nM] | IC50 [2] [nM]
1 | – | CCCCCCc1nsnc1OC1CN2CCC1CC2 (racemic) [Compound 101, (±)-3-Hexyl-4-(1-azabicyclo[2.2.2]octyl-3-oxy)-1,2,5-thiadiazole] | 88 | 36
2 | – | C(=Cc1ccccc1)CSc1nsnc1OC1CN2CCC1CC2 (racemic) [Compound 149, (±)-3-(3-Phenyl-2-propenylthio)-4-(1-azabicyclo[2.2.2]octyl-3-oxy)-1,2,5-thiadiazole] | 14 | 30
3 | – | CCCCOc1nsnc1O[C@@H]1CN2CC[C@H]1C2 (relative stereo) [Compound 25, (±)-endo-3-Butyloxy-4-(1-azabicyclo[2.2.1]heptyl-3-oxy)-1,2,5-thiadiazol] | 1.8 | 2.1
4 | 2.5 | FC(F)(F)C(F)(F)COc1nsnc1O[C@@H]1CN2CCC[C@H]1C2 (relative stereo) [Compound 190, (±)-endo-3-(3,3,3,2,2,Pentafluoropropoxy)-4-(1-azabicyclo[3.2.1]octyl-6-oxy)-1,2,5-thiadiazole] | 3.9 | –
5 | 227 | CCCCOc1nsnc1OC1CCCNC1 (racemic) [Compound 134, (±)-3-Butyloxy-4-(3-piperidinyloxy)-1,2,5-thiadiazole] | 55 | –
6 | – | FC(F)(F)c1ccc(CCCSc2nsnc2OC2CN3CCC2CC3)cc1 (racemic) [Compound 74, (±)3-{3-[4-(Trifluoromethyl)phenyl]propylthio}-4-[-3-(1-azabicyclo[2.2.2]octyloxy)]-1,2,5-thiadiazole] | 24 | 40
7 | – | FC(F)(F)C(F)(F)C(F)(F)COc1nsnc1O[C@@H]1CN2CCC[C@H]1C2 (relative stereo) [Compound 187, (±)-endo-3-(4,4,4,3,3,2,2-Heptafluorobutoxy)-4-(1-azabicyclo[3.2.1]octyl-6-oxy)-1,2,5-thiadiazole] | 2.8 | 1.6
8 | – | CC#CCOc1nsnc1OC1CN2CCC1CC2 (racemic) [Compound 105, (±)-3-(2-butynyloxy)-4-(1-azabicyclo[2.2.2]octyl-3-oxy)-1,2,5-thiadiazole] | 7.9 | 65.6
9 | – | FC(F)(F)C(F)(F)C(F)(F)COc1nsnc1OC1CN2CCC1CC2 (racemic) [Compound 69, (±)3-(2,2,3,3,4,4,4-heptafluorobutyloxy)-4-[-3-(1-azabicyclo[2.2.2]octyloxy)]-1,2,5-thiadiazole] | 29 | 20
10 | 5 | c1csc(CCCOc2nsnc2O[C@@H]2CN3CCC[C@H]2C3)c1 (relative stereo) [Compound 206, (±)-endo-3-[3-(2-Thienyl)propoxy]-4-(1-azabicyclo[3.2.1]octyl-6-oxy)-1,2,5-thiadiazole] | 6.1 | –
11 | 2 | C1C[C@H]2CN(C1)C[C@H]2Oc1nsnc1OCCC1CC1 (relative stereo) [Compound 185] | 0.76 | –
12 | 2.2 | C=CCCOc1nsnc1O[C@@H]1CN2CCC[C@H]1C2 (relative stereo) [Compound 184, (±)-endo-3-(3-Butenyloxy)-4-(1-azabicyclo[3.2.1]octyl-6-oxy)-1,2,5-thiadiazole] | 1.2 | –
13 | 0.72 | CCCCSc1nsnc1OC1CC2CCC1NC2 (racemic) [Compound 65, (±)3-Butylthio-4-(exo-2-azabicyclo[2.2.2]oct-6-yloxy)-1,2,5-thiadiazole] | 2.3 | –
14 | 5.4 | CC(Oc1nsnc1OC1CN2CCCC1C2)C1CC1 (mixture of isomers) [Compound 199, (±)-endo-3-(1-cyclopropylethoxy)-4-(1-azabicyclo[3.2.1]octyl-6-oxy)-1,2,5-thiadiazole] | 3.3 | –
15 | – | CC(C)(C)CCSc1nsnc1OC1CN2CCC1CC2 (racemic) [Compound 18, (±)-3-(3,3-Dimethylbutylthio)-4-(1-azabicyclo[2.2.2]-octyl-3-oxy)-1,2,5-thiadiazole] | 101 | 73
16 | – | CCOc1nsnc1OC1CN2CCC1CC2 (racemic) [Compound 6, (±)-3-Ethoxy-4-(1-azabicyclo[2.2.2]octyl-3-oxy)-1,2,5-thiadiazole] | 17 | 32
17 | 25 | CCCCOc1nsnc1OC1CCN(C)C1 (racemic) [Compound 28, (±)-3-Butyloxy-4-(1-methyl-3-pyrrolidinyloxy)-1,2,5-thiadiazole] | 37 | –
18 | 351 | CCCCOc1nsnc1OC1CNC1 [Compound 50, 3-Butyloxy-4-(3-azetidinyloxy)-1,2,5-thiadiazole] | 92 | –
19 | 9.5 | c1ccc(OCCOc2nsnc2O[C@@H]2CN3CCC[C@H]2C3)cc1 (relative stereo) [Compound 191, (±)-endo-3-(2-Phenoxyethoxy)-4-(1-azabicyclo[3.2.1]octyl-6-oxy)-1,2,5-thiadiazole] | 1.4 | –
20 | 128 | FC(F)(F)CCCOc1nsnc1OC1CC2CCC1NC2 (mixture of isomers) [Compound 162, (±)-endo-3-(4,4,4-Trifluorobutyloxy)-4-(2-azabicyclo[2.2.2]octyl-6-oxy)-1,2,5-thiadiazole] | 179 | –
21 | – | CCCCSc1nsnc1OC1CN2CCC1CC2 (racemic) [Compound 14, (±)-3-Butylthio-4-(1-azabicyclo[2.2.2]octyl-3-oxy)-1,2,5-thiadiazole] | 1.3 | 1.9

Row | Structure (SMILES) | IC50 [2, 3] [nM] | IC50 [1] [nM] | IC50 [2] [nM]
22 | CCCCOc1nsnc1O[C@@H]1C[C@H]2CC(=O)C[C@@H]1N2C (relative stereo) [Compound 46, (±)-exo-3-Butyloxy-4-(6-(N-methyl-8-azabicyclo[3.2.1]octan-3-onoxy))-1,2,5-thiadiazole] | > 1000 | > 1000 | –
23 | c1ccc(OCCOc2nsnc2OC2CN3CCC2CC3)cc1 (racemic) [Compound 112, (±)-3-(2-Phenoxyethoxy)-4-(1-azabicyclo[2.2.2]octyl-3-oxy)-1,2,5-thiadiazole] | 153 | 16 | –
24 | FC(F)(F)C(F)(F)COc1nsnc1OC1CN2CCC1CC2 (racemic) [Compound 125, (±)-3-(3,3,3,2,2-Pentafluoropropyloxy)-4-(1-azabicyclo[2.2.2]octyl-3-oxy)-1,2,5-thiadiazole] | 191 | 36 | –
25 | CSCCOc1nsnc1OC1CN2CCC1CC2 (racemic) [Compound 115, (±)-3-(2-(Methylthio)ethoxy)-4-(1-azabicyclo[2.2.2]octyl-3-oxy)-1,2,5-thiadiazole] | 532 | 19 | –
26 | FCCCCOc1nsnc1OC1CN2CCC1CC2 (racemic) [Compound 117, (±)-3-(4-Fluorobutyloxy)-4-(1-azabicyclo[2.2.2]octyl-3-oxy)-1,2,5-thiadiazole] | 238 | 32 | –
27 | FC(F)(F)c1ccc(OC(CCSc2nsnc2OC2CN3CCC2CC3)c2ccccc2)cc1 (racemic) [Compound 153, (±)-3-(3-Phenyl-3-[4-trifluoromethylphenoxy]propylthio)-4-(1-azabicyclo[2.2.2]octyl-3-oxy)-1,2,5-thiadiazole] | 205 | 597 | –
28 | FC(F)(F)CCCOc1nsnc1OC1CN2CCC1CC2 (racemic) [Compound 104, (±)-3-(4,4,4-Trifluorobutyloxy)-4-(1-azabicyclo[2.2.2]octyl-3-oxy)-1,2,5-thiadiazole] | 115 | 107 | –

From patent publication US5665745A, “Heterocyclic compounds and their preparation and use” (Eli Lilly and Company, priority 1995, dated 1997)
